Values of other authors in patent US20110200560A1, “NON-IONIC SELF-ASSEMBLING PEPTIDES AND USES THEREOF” (MASSACHUSETTS INSTITUTE OF TECHNOLOGY, priority 2009, published 2011).
Read-outs that look alike come from different tables or passages of the source.

What was measured:
[1] = test system: human umbilical vein endothelial cell (HUVEC); details: from RADA 16-I scaffold, without additional soluble growth factors
[2] = test system: human umbilical vein endothelial cells (HIVEC)

For KAFDITYVRLKF (Mammalian), which HUVEC adhesion (HUVEC) is on record?
The HUVEC adhesion was “promoted”.

What about the HUVEC tube formation (HUVEC) of the same substance?
Its HUVEC tube formation is “promoted”.

And the neurite outgrowth (neuronal cell)?
The neurite outgrowth was “promoted”.

And the neuronal cell adhesion (neuronal cell)?
The neuronal cell adhesion was “promoted”.

Which results are given for “RAD/PRG: RADA16 peptide scaffold containing active motif with 2 units RGD motif (PRGDSGYRGDS) (SEQ ID NO: 77) (Mammalian)”?
HUVEC unidirectional migration in response to functional peptide scaffolds [1]: directionally migrated; HUVEC unidirectional migration in response to functional peptide scaffolds ([1]; listed as PRG): induced cell migration

With PDSGR (Mammalian) as the substance, how does the cell adhesion (cell adhesion) read?
Its cell adhesion is “promoted cell adhesion”.

With YIGSR (Mammalian) as the substance, how does the cell adhesion (cell adhesion) read?
Its cell adhesion is “promoted cell adhesion”.

What does the source list for “RAD/KLT: RADA16 peptide scaffold containing motif from vascular endothelial growth factor (KLTWQELYQLKYKGI) (SEQ ID NO: 78) (Mammalian)”?
HUVEC unidirectional migration in response to functional peptide scaffolds [1]: directionally migrated; HUVEC unidirectional migration in response to functional peptide scaffolds ([1]; listed as KLT): induced cell migration

With AASIKVAVSADR (Mammalian) as the substance, how does the “activity of neurite extension by PC12 cells” value (PC12 cells) read?
The value was “promoted activity of neurite extension”.

With “CSRARKQAASIKVAVSADR (Mammalian) [Laminin-1 peptide]” as the substance, how does the “degradation of Matrigel matrix by human umbilical vein endothelial cells” value [2] read?
Its value is “induced degradation of Matrigel matrix”.

Which cell adhesion (cell adhesion) does the source give for RYVVLPR (Mammalian) here?
Its cell adhesion is “promoted cell adhesion”.
